The structures appear in SMILES notation. Read-outs that look alike come from different tables or passages of the source. Bounds are passed on as bounds.

The target in assay [1] is T1, recombinant N-terminal GST-tagged human Rho kinase 1 (ROCK1, amino acids 1-535) (Homo sapiens, UniProt Q13464).
T1 construct: ROCK1, amino acids 1-535; purchased Invitrogen Inc. PV-3691
Nature of the assay: In vitro Rho kinase assay (luciferase-based ATP consumption), ROCK1. Type of assay: biochemical. In short, it runs like this: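 ATP depletion measured by firefly luciferase luminescence after 2 h at 30 °C, with inhibition raising signal and activity expressed relative to H-1152P. Reaction: 0.82 μg/ml recombinant GST-tagged ROCK1 (aa 1-535), S6 peptide 100 μg/ml, […], pH 7.5 Tris buffer.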

Assay [2] addresses T2, recombinant N-terminal GST-tagged human Rho kinase 2 (ROCK2, amino acids 1-552) (Homo sapiens, UniProt O75116).
T2 construct: ROCK2, amino acids 1-552; purchased Invitrogen Inc. PV3759
The assay is described as follows: In vitro Rho kinase assay (luciferase-based ATP consumption), ROCK2. The assay is classed as biochemical. In short, it runs like this: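 Luciferase-based luminescence of leftover ATP after 2 h at 30 °C, where inhibition raises signal, reports activity of GST-tagged ROCK2 (aa 1-552) at 0.82 μg/ml. Conditions: S6 peptide 100 μg/ml, […], pH 7.5 Tris buffer. Results given as percent of H-1152P control activity.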

Where [3] appears, read: recombinant GST-tagged human ROCK1, luciferase-based ATP consumption, read-out: ROCK1 IC50.
Setting [4] is: recombinant GST-tagged human ROCK2, luciferase-based ATP consumption, read-out: ROCK2 IC50.

T1 sequence (Q13464 1-535): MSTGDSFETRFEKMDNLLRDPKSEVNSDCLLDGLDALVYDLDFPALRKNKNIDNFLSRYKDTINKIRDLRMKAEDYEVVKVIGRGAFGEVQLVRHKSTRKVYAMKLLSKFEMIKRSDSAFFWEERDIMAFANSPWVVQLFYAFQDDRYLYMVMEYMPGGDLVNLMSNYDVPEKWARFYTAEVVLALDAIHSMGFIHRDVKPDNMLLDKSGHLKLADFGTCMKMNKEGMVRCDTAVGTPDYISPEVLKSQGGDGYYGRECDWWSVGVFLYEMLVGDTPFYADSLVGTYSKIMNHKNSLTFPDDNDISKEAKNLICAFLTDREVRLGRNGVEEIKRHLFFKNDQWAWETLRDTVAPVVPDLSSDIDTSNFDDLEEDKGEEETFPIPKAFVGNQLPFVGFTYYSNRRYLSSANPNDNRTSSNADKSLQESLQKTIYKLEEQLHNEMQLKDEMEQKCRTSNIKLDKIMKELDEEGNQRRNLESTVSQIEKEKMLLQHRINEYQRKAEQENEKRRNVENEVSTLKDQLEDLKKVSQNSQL
T2 sequence (O75116 1-552): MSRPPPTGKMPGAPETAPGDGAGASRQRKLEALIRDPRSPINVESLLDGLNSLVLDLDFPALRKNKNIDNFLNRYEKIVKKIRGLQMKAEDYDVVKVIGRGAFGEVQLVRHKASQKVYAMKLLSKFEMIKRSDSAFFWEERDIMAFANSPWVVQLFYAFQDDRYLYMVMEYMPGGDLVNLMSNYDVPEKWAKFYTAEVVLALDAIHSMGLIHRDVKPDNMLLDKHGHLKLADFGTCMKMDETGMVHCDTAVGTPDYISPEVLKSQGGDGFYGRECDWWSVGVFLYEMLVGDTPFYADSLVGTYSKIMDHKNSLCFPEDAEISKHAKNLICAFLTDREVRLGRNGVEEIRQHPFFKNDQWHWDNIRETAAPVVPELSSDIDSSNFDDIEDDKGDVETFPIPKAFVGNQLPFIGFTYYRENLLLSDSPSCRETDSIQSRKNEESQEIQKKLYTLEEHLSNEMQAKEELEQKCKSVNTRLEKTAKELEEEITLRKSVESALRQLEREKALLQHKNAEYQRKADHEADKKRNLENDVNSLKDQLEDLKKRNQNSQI

Take `Cc1c(-c2ccnc(N)n2)sc2ccc(CNC(=O)c3cc(O)ccc3O)cc12` [Example 142, Cc1c(sc2ccc(CNC(═O)c3cc(O)ccc3O)cc12)-c4ccnc(N)n4]: the IC50 in assay [1] (setting [3]) was > 5 µM; in assay [2] (setting [4]), < 5 µM.

For `Cc1cccc(C(=O)NCc2ccc3sc(-c4ccnc(N)n4)c(C)c3c2)c1C` [Example 133, Cc1cccc(c1C)C(═O)NCc2ccc3sc(c(C)c3c2)-c4ccnc(N)n4], the IC50 in assay [1] (setting [3]) and in assay [2] (setting [4]) was < 5 µM in each case.

With `Cc1c(-c2ccnc(N)n2)sc2ccc(CNC(=O)c3cc(F)c(F)cc3Cl)cc12` [Example 252, Cc1c(sc2ccc(CNC(═O)c3cc(F)c(F)cc3Cl)cc12)-c4ccnc(N)n4], the IC50 in assay [1] (ROCK1 IC50, recombinant GST-tagged human ROCK1, luciferase-based ATP consumption) was < 5 µM; in assay [2] (ROCK2 IC50, recombinant GST-tagged human ROCK2, luciferase-based ATP consumption) it was < 5 µM.

Turning to `Cc1c(C(=O)NCc2ccc3sc(-c4ccnc(N)n4)c(C)c3c2)cccc1[N+](=O)[O-]` [Example 218, Cc1c(cccc1[N+]([O−])═O)C(═O)NCc2ccc3sc(c(C)c3c2)-c4ccnc(N)n4], the IC50 in assay [1] (setting [3]) is > 5 µM; in assay [2] (setting [4]), < 5 µM.

On to `Cc1c(-c2ccnc(N)n2)sc2ccc(CNC(=O)c3cccc(O)c3)cc12` [Example 121, Cc1c(sc2ccc(CNC(═O)c3cccc(O)c3)cc12)-c4ccnc(N)n4], for which the IC50 in assay [1] (setting [3]) and in assay [2] (setting [4]) was < 5 µM in each case.

Turning to `Cc1c(-c2ccnc(N)n2)sc2ccc(Cc3cccc(C(=O)OC(C)C)c3)cc12` [Example 43, Isopropyl 3-((2-(2-aminopyrimidin-4-yl)-3-methylbenzo[b]thiophen-5-yl)methyl)benzoate], the IC50 in assay [1] (setting [3]) and in assay [2] (setting [4]) was < 5 µM throughout.

Take `COc1cc(C(=O)NCc2ccc3sc(-c4ccnc(N)n4)c(C)c3c2)c([N+](=O)[O-])cc1OC` [Example 301, COc1cc(C(═O)NCc2ccc3sc(c(C)c3c2)-c4ccnc(N)n4)c(cc1OC)[N+]([O−])═O]: the IC50 in assay [1] (setting [3]) was > 5 µM; in assay [2] (setting [4]), < 5 µM.

Regarding `Cc1ccccc1C(=O)NCc1ccc2sc(-c3ccnc(N)n3)c(C)c2c1` [Example 119, Cc1ccccc1C(═O)NCc2ccc3sc(c(C)c3c2)-c4ccnc(N)n4], the IC50 is > 5 µM in assay [1] (setting [3]) and < 5 µM in assay [2] (setting [4]).

Regarding `COc1ccc(C(=O)NCc2ccc3sc(-c4ccnc(N)n4)c(C)c3c2)cc1` [Example 138, COc1ccc(cc1)C(═O)NCc2ccc3sc(c(C)c3c2)-c4ccnc(N)n4], the figures for the IC50 in assay [1] (setting [3]) and in assay [2] (setting [4]) were > 5 µM and < 5 µM, respectively.

As to `Cc1c(-c2ccnc(N)n2)sc2ccc(CNC(=O)c3ccc([N+](=O)[O-])c(O)c3)cc12` [Example 226, Cc1c(sc2ccc(CNC(═O)c3ccc(c(O)c3)[N+]([O−])═O)cc12)-c4ccnc(N)n4], the IC50 was > 5 µM in assay [1] (setting [3]) and < 5 µM in assay [2] (setting [4]).

With `Cc1ccccc1CC(=O)NCc1ccc2sc(-c3ccnc(N)n3)c(C)c2c1` [Example 132, Cc1ccccc1CC(═O)NCc2ccc3sc(c(C)c3c2)-c4ccnc(N)n4], the IC50 in assay [1] (setting [3]) and in assay [2] (setting [4]) was < 5 µM in each case.

Regarding `Cc1ccc(C(=O)NCc2ccc3sc(-c4ccnc(N)n4)c(C)c3c2)cc1Br` [Example 287, Cc1ccc(cc1Br)C(═O)NCc2ccc3sc(c(C)c3c2)-c4ccnc(N)n4], the IC50 was > 5 µM in assay [1] (setting [3]) and < 5 µM in assay [2] (setting [4]).

Regarding `Cc1c(-c2ccnc(N)n2)sc2ccc(CNC(=O)CCc3nc4ccccc4[nH]3)cc12` [Example 244, Cc1c(sc2ccc(CNC(═O)CCc3nc4ccccc4[nH]3)cc12)-c5ccnc(N)n5], the 50% inhibitory concentration (IC50) in assay [1] (setting [3]) and in assay [2] (setting [4]) was < 5 µM each time.

As to `Cc1c(-c2cccnc2N)sc2ccc(Cl)cc12` [Example 11, 3-(5-Chloro-3-methylbenzo[b]thiophen-2-yl)pyridin-2-amine], the IC50 in assay [1] (setting [3]) and in assay [2] (setting [4]) was > 5 µM throughout.

Regarding `Cc1c(-c2ccnc(N)n2)sc2ccc(C(=O)N3CCC(NC(=O)OC(C)(C)C)C3)cc12` (stereo not drawn) [Example 22, tert-Butyl 1-(2-(2-aminopyrimidin-4-yl)-3-methylbenzo[b]thiophene-5-carbonyl)pyrrolidin-3-ylcarbamate], the IC50 in assay [1] (setting [3]) and in assay [2] (setting [4]) was > 5 µM throughout.

The IC50 is the concentration needed to halve the response being measured.

(Values after US20080021026A1, “BENZOTHIOPHENE INHIBITORS OF RHO KINASE” (priority 2006, published 2008).)
